Source: US10358449B2, “Xanthine derivative” (priority 2015, dated 2019)
Where two headings read alike, the source gives them in different places. Marks after values point to notes of the source that are not given here.

What was measured:
[1] = target: humanized recombinant DPP8 (Homo sapiens (Human), UniProt Q6V1X1); assay: Drug selectivity experiment in vitro, DPP8; type: biochemical
[2] = system: diabetic mice (B6.BKS(D)-Leprdb/JNju); assay: Glucose tolerance test of diabetic mice (Table 5); type: in vivo, mouse; set-up: AUC0-120 min: unit not given beside the values
Method: (§1) 2. Experimental method: normal mice, obese mice and diabetic mice were used for studying glucose tolerance tests Experimental process of OGTT (Oral Glucose Tolerance Test): fasting for 6 hours before the test begins, 60 min after drug administration, glucose was administrated by gavage (drug concentration 0.6 mg/ml, administration volume 5 ml/kg) (2 g/kg glucose was administrated to diabetic mice; 2 g/kg glucose was administrated to obese mice; and 5 g/kg glucose was administrated to normal mice), blood glucose values at 0 min, 15 min, 30 min, 45 min, 60 min and 120 min are respectively determined after glucose administration, […]

normal mice (C57BL/6J) = assay: Oral glucose tolerance test of normal mice; type: in vivo, mouse; set-up: AUC0-120 min: unit not given beside the values
Method: as §1

[3] = Pharmacokinetics experiments in CD-1 mice; type: in vivo, mouse; details: for concentration at 0.5 h: 0.500 h; for MRT last: read-out: MRT0-last; for concentration at 0.25 h: 0.250 h; for Plasma drug concentration (ng/ml): LLOQ 3 ng/ml
Method: Six healthy CD-1 mice of 7-10 weeks old were randomly separated into two groups. 2 mg/kg and 5 mg/kg TSL-0319 were administrated respectively by intravenous injection and by gavage (2 mg/ml for intravenous injection, made into transparent solution with solution of DMSO/PEG400/H2O=20/60/20; 5 mg/ml for gavage; made into transparent solution with solution of PEG400 (Tween80/H2O=40/10/50); fasting for 12 hours but free drinking before administration; blood was taken from the great saphenous vein or submaxillary veins by time points (time points for taking blood of intravenous injection: 0 h, 0.0833 h, 0.250 h, 0.500 h, 1.00 h, 2.00 h, 4.00 h, 8.00 h, 12.00 h and 24.00 h; time points for taking blood of gavage: 0 h, 0.250 h, 0.50 h, 1.00 h, 2.00 h, 4.00 h, 8.00 h, 12.00 h and 24.0 h) before and after administration, lower limit of quantitation, LLOQ was set at 3 ng/ml.

[4] = system: obese mice (B6.Cg-Lepob/JNju); assay: Glucose tolerance test of obese mice; type: in vivo, mouse; set-up: AUC0-120 min: unit not given beside the values
Method: as §1

[5] = target: humanized recombinant DPP9 (Homo sapiens (Human), UniProt Q86TI2); assay: Drug selectivity experiment in vitro, DPP9; type: biochemical
[6] = target: humanized recombinant DPP-IV (Homo sapiens (Human), UniProt P27487); assay: DPP-IV activity inhibition test in vitro (DPPIV-Glo luminescence); type: biochemical
Method: (1) DPP-IV Activity Inhibition Tests In Vitro
DPP-IV could hydrolyze Gly-Pro-Aminoluciferin at room temperature to generate Aminoluciferin, which could produce “glow type” luminescent signals in a luciferase reaction system provided by a DPPIV-Glo™ protease test kit, and the strength of the luminescent signals was in direct proportion to the enzyme activity of DPP-IV.
2.1 humanized recombinant DPP-IV: SIGMA product, article number D3446-10UG.
2.2 DPPIV-Glo™ protease detection kit: Promega product, article number G8351.
3.2 Diluting dipeptidyl peptidase IV (Sigma) to 0.2 ng/ml solution with 10 mM Tris-HCl (pH 8.0), adding the samples to be detected in, per well 25 μl. […] Experimental Results

[7] = CD-1, mouse, plasma, oral, gavage 5 mg/kg, read-out: Plasma drug concentration
[8] = CD-1, mouse, plasma, po, gavage 5 mg/kg
[9] = CD-1, mouse, plasma, intravenous injection 2 mg/kg
[10] = CD-1, mouse, plasma, intravenous injection 2 mg/kg, read-out: Plasma drug concentration

Chain of humanized recombinant DPP8 (Q6V1X1 whole entry): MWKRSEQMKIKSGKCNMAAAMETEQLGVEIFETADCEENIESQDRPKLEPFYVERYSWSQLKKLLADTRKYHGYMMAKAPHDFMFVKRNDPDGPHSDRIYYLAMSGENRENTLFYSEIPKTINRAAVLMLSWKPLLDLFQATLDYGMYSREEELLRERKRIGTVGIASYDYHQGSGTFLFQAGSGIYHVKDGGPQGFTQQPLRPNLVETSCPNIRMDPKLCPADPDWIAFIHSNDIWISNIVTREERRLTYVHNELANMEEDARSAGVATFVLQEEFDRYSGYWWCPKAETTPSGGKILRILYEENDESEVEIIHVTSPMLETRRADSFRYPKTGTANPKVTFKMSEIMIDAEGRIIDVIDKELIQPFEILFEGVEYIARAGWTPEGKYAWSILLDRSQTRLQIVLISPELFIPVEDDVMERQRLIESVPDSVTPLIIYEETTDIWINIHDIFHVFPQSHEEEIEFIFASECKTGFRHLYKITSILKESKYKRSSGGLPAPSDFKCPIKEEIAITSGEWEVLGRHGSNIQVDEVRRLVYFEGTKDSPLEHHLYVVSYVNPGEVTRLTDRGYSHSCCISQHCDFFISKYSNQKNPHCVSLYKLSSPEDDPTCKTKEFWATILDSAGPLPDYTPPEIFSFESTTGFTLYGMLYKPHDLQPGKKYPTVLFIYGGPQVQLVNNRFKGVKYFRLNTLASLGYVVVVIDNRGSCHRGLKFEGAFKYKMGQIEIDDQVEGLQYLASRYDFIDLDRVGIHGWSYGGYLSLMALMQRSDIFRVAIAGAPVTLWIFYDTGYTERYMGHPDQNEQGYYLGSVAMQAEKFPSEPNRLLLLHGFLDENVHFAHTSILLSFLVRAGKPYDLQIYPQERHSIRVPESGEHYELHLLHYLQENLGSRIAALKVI
Chain of humanized recombinant DPP-IV (P27487 whole entry): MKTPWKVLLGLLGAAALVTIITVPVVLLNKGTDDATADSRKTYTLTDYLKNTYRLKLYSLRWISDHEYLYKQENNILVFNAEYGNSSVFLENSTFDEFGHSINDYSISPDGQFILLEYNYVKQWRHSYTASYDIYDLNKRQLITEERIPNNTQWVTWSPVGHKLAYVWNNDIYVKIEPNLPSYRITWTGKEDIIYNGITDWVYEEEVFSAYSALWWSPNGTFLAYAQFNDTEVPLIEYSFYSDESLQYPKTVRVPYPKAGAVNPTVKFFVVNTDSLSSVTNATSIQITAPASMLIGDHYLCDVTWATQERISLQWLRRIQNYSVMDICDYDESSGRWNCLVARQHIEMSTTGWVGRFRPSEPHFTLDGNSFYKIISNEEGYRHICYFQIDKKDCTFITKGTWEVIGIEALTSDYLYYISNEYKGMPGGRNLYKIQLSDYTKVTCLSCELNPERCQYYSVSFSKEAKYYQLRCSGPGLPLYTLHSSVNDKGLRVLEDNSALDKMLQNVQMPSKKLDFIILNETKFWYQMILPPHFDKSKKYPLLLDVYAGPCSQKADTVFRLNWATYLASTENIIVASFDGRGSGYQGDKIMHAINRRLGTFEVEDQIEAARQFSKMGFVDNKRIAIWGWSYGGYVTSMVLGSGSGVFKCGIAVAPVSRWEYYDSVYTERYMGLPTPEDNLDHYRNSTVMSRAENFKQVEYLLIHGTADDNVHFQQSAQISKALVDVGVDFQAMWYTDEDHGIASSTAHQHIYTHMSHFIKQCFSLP
Chain of humanized recombinant DPP9 (Q86TI2 whole entry): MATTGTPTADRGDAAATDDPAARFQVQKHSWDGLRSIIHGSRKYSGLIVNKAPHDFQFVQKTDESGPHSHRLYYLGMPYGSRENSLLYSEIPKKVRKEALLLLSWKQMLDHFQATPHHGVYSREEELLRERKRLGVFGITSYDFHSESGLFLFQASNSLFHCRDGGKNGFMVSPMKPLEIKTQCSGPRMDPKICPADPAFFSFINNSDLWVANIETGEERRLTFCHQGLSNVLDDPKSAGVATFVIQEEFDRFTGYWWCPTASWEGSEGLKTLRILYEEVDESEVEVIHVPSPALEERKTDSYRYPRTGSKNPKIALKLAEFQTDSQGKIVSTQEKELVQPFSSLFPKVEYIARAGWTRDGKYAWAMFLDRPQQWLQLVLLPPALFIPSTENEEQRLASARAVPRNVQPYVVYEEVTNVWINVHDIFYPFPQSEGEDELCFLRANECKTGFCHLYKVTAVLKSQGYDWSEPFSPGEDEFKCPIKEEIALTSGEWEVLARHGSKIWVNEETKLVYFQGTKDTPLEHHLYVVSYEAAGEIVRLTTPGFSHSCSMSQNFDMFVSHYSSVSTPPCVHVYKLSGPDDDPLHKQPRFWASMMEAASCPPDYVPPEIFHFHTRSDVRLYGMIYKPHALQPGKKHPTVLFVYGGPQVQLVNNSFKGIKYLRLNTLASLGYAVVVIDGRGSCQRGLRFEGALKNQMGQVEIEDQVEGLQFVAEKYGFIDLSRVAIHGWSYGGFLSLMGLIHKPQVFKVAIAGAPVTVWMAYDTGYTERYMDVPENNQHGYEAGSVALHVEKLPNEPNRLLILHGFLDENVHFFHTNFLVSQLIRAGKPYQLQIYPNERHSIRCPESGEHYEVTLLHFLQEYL

## CC#CCn1c(N2CCC[C@@H](N)C2)nc2c1c(=O)n(Cc1nccnc1C#N)c(=O)n2C [Compound I-3, 1-[(3-cyano-pyrazine-2-yl)methyl]-3-methyl-7-(2-butyne-1-yl)-8-[(R)-3-amino-piperidine-1-yl]-xanthine]
[1]
  IC50: > 100000 nM
[1]; DPP8 versus DPP4
  Selectivity (DPP8 column): > 1250000
[1]; in words
  inhibition effect to DPP8: no inhibition effect
[2]; Table 5 mice (diabetic), in words
  hypoglycemic effect: good hypoglycemic effect
[2]; diabetic mice B6.BKS(D)-Leprdb/JNju, drug at -60 min (0.6 mg/ml, 5 ml/kg), 2 g/kg glucose at 0 min
  Blood glucose concentration 0 min: 11.84 mmol/L
[2]; diabetic mice, 15 min after glucose
  Blood glucose concentration 15 min: 32.23 mmol/L
[2]; diabetic mice, 30 min after glucose
  Blood glucose concentration 30 min: 22.80* mmol/L
[2]; diabetic mice, 45 min after glucose
  Blood glucose concentration 45 min: 15.70*** mmol/L
[2]; diabetic mice, 60 min after glucose
  Blood glucose concentration 60 min: 13.80*** mmol/L
[2]; diabetic mice, 120 min after glucose
  Blood glucose concentration 120 min: 8.75** mmol/L
[2]; diabetic mice, blood glucose AUC
  AUC0-120 min: 1930**
Normal mice (C57BL/6J); normal mice C57BL/6J, drug at -60 min (0.6 mg/ml, 5 ml/kg), 5 g/kg glucose at 0 min
  Blood glucose concentration 0 min: 8.88* mmol/L
Normal mice (C57BL/6J); normal mice, in words
  hypoglycemic effect: good hypoglycemic effect
Normal mice (C57BL/6J); normal mice, 15 min after glucose
  Blood glucose concentration 15 min: 14.6*** mmol/L
Normal mice (C57BL/6J); normal mice, 30 min after glucose
  Blood glucose concentration 30 min: 11.0*** mmol/L
Normal mice (C57BL/6J); normal mice, 45 min after glucose
  Blood glucose concentration 45 min: 9.23*** mmol/L
Normal mice (C57BL/6J); normal mice, 60 min after glucose
  Blood glucose concentration 60 min: 9.82*** mmol/L
Normal mice (C57BL/6J); normal mice, 120 min after glucose
  Blood glucose concentration 120 min: 7.58 mmol/L
Normal mice (C57BL/6J); normal mice, blood glucose AUC
  AUC0-120 min: 1185***
[3]; CD-1, mouse, blood, oral, dosage 5 mg/kg, read-out: Cmax in mice
  Cmax: 200 to 500 nM
[3]; [7]
  concentration at 0.5 h: 123 ± 30.2 ng/mL
  concentration at 1 h: 183 ± 19.1 ng/mL
  concentration at 2 h: 211 ± 83 ng/mL
  concentration at 4 h: 145 ± 40.9 ng/mL
[3]; CD-1, mouse, plasma, oral, gavage 5 mg/kg, 8.00 h, read-out: Plasma drug concentration
  concentration at 8 h: 8.03 ± 3.71 ng/mL
[3]; [8]
  AUC(0-inf): 858 ± 185 ng·h/mL
  AUC(0-t): 844 ± 181 ng·h/mL
  Tmax: 1.33 ± 0.577 h
  half-life: 1.37 ± 0.317 h
  MRT last: 2.87 ± 0.0589 h
[3]; CD-1, mouse, plasma, po, gavage 5 mg/kg, read-out: MRT0-inf
  MRT inf: 3 ± 0.111 h
[3]; [9]
  AUC(0-inf): 567 ± 56.1 ng·h/mL
  AUC(0-t): 555 ± 54.7 ng·h/mL
  clearance: 59.1 ± 5.63 mL/min/kg
  MRT last: 0.836 ± 0.0919 h
[3]; [10]
  concentration at 0.25 h: 529 ± 93.4 ng/mL
  concentration at 0.5 h: 344 ± 32.7 ng/mL
  concentration at 1 h: 161 ± 21.2 ng/mL
  concentration at 2 h: 47.5 ± 13.6 ng/mL
  concentration at 4 h: 11.9 ± 2.24 ng/mL
[3]; CD-1, mouse, plasma, intravenous injection 2 mg/kg, read-out: MRT0-int
  MRT: 0.953 ± 0.123 h
[3]; CD-1, mouse, plasma, intravenous injection 2 mg/kg, read-out: Vdss
  Vd: 3.41 ± 0.745 L/kg
[3]; gavage 5 mg/kg, 12.00 h
  Plasma drug concentration (ng/ml): BQL
[3]; gavage 5 mg/kg, 24.00 h
  Plasma drug concentration (ng/ml): BQL
[3]; intravenous injection 2 mg/kg, 8.00 h
  Plasma drug concentration (ng/ml): BQL
[3]; intravenous injection 2 mg/kg, 12.00 h
  Plasma drug concentration (ng/ml): BQL
[3]; intravenous injection 2 mg/kg, 24.00 h
  Plasma drug concentration (ng/ml): BQL
[3]; mouse, plasma, oral, gavage 5 mg/kg versus intravenous 2 mg/kg, CD-1 mice
  bioavailability: 60.5%
[3]; mouse, plasma, oral, gavage 5 mg/kg, CD-1 mice, read-out: Plasma drug concentration
  concentration at 0.25 h: 48 ± 27.9 ng/mL
[3]; mouse, plasma, po, gavage 5 mg/kg, CD-1 mice, read-out: Cmax
  Cmax: 223 ± 68.1 ng/mL
[3]; mouse, plasma, intravenous injection 2 mg/kg, CD-1 mice
  half-life: 1.09 ± 0.623 h
[3]; mouse, plasma, intravenous injection 2 mg/kg, CD-1 mice, 0.5 min, read-out: Plasma drug concentration
  concentration at 0.5 min: 759 ± 133 ng/mL
[4]; obese mice B6.Cg-Lepob/JNju, drug at -60 min (0.6 mg/ml, 5 ml/kg), 2 g/kg glucose at 0 min
  Blood glucose concentration 0 min: 10.90 mmol/L
[4]; obese mice, in words
  hypoglycemic effect: good hypoglycemic effect
[4]; obese mice, 15 min after glucose
  Blood glucose concentration 15 min: 32.88 mmol/L
[4]; obese mice, 30 min after glucose
  Blood glucose concentration 30 min: 25.93 mmol/L
[4]; obese mice, 45 min after glucose
  Blood glucose concentration 45 min: 17.03** mmol/L
[4]; obese mice, 60 min after glucose
  Blood glucose concentration 60 min: 13.88** mmol/L
[4]; obese mice, 120 min after glucose
  Blood glucose concentration 120 min: 9.53* mmol/L
[4]; obese mice, blood glucose AUC
  AUC0-120 min: 2025*
[5]
  IC50: > 100000 nM
[5]; DPP9 versus DPP4
  Selectivity (DPP9 column): > 1250000
[5]; in words
  inhibition effect to DPP9: no inhibition effect
[6]; DPP-IV, Table 1, read-out: IC50
  IC50: 0.08 nM
[6]; Table 2, read-out: DPP4 IC50
  IC50: 0.08 nM
[6]; in words
  DPP-IV activity compared with linagliptin: better activity than linagliptin
